Assay results reported in ChEMBL document CHEMBL1201862, “PubChem BioAssay data set” (2004).
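48-hour exposure; five concentrations; linearly interpolated endpoints. GI50: concentration for 50% inhibition of growth.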 Active and inactive are the calls of the source. Rule as the data show it: active = GI50 up to about 1.1 µM and inactive = higher. Where a SMILES comes first, the peptide text is derived from it. The star is where a group is joined. X33 = O=C(c1ccc(-c2ccc(Cl)cc2Cl)o1)*

Key:
Experiment in all cases: NCI anticancer screen, dose series, 48 h
786-0 = tested on: 786-0
A498 = tested on: A498
A549 = tested on: A549
CCRF-CEM = tested on: CCRF-CEM
DU-145 = tested on: DU-145
HCT-116 = tested on: HCT-116
KM12 = tested on: KM12
MDA-N = tested on: MDA-N
MOLT-4 = tested on: MOLT-4
NCI-H226 = tested on: NCI-H226
OVCAR-3 = tested on: OVCAR-3
PC-3 = tested on: PC-3
SF-295 = tested on: SF-295
SF-539 = tested on: SF-539
SK-OV-3 = tested on: SK-OV-3
SNB-19 = tested on: SNB-19
SNB-75 = tested on: SNB-75
SW-620 = tested on: SW-620
TK-10 = tested on: TK-10
UACC-62 = tested on: UACC-62

SMILES: COC(=O)C1=C(C(=O)OC)SC(=C2SCSC3=C2SC(C(=O)OC)=C(C(=O)OC)C32SC3=C(CCCC3)S2)S1
- GI50 (786-0): 74.1 µM (inactive)
- GI50 (A498): 99.8 µM (inactive)
- GI50 (A549): > 100 µM (inactive)
- GI50 (CCRF-CEM): > 100 µM (inactive)
- GI50 (DU-145): > 100 µM (inactive)
- GI50 (HCT-116): > 100 µM (inactive)
- GI50 (KM12): > 100 µM (inactive)
- GI50 (MDA-N): > 100 µM (inactive)
- GI50 (MOLT-4): > 100 µM (inactive)
- GI50 (NCI-H226): > 100 µM (inactive)
- GI50 (OVCAR-3): > 100 µM (inactive)
- GI50 (PC-3): > 100 µM (inactive)
- GI50 (SF-295): 83.9 µM (inactive)
- GI50 (SF-539): 44.5 µM (inactive)
- GI50 (SK-OV-3): > 100 µM (inactive)
- GI50 (SNB-19): 55.7 µM (inactive)
- GI50 (SNB-75): 13.9 µM (inactive)
- GI50 (SW-620): > 100 µM (inactive)
- GI50 (TK-10): 32.4 µM (inactive)
- GI50 (UACC-62): > 100 µM (inactive)

SMILES: C=CCN1C(=O)/C(=C/c2ccc(C)cc2)N=C1SC/C=C/C
- GI50 (786-0): 29.9 µM (inactive)
- GI50 (A498): 24.3 µM (inactive)
- GI50 (A549): 21 µM (inactive)
- GI50 (CCRF-CEM): 26.7 µM (inactive)
- GI50 (DU-145): 55.3 µM (inactive)
- GI50 (HCT-116): 18.8 µM (inactive)
- GI50 (KM12): 27.8 µM (inactive)
- GI50 (MDA-N): 22.8 µM (inactive)
- GI50 (MOLT-4): 14.8 µM (inactive)
- GI50 (NCI-H226): > 100 µM (inactive)
- GI50 (OVCAR-3): 40.8 µM (inactive)
- GI50 (PC-3): 33 µM (inactive)
- GI50 (SF-295): 36.8 µM (inactive)
- GI50 (SF-539): 77.3 µM (inactive)
- GI50 (SK-OV-3): > 100 µM (inactive)
- GI50 (SNB-19): 15.5 µM (inactive)
- GI50 (SNB-75): 17.8 µM (inactive)
- GI50 (SW-620): 39.4 µM (inactive)
- GI50 (TK-10): > 100 µM (inactive)
- GI50 (UACC-62): 39.5 µM (inactive)

SMILES: Cc1cc(S(=O)(=O)Nc2nc(Nc3ccc4ccccc4c3)n[nH]2)c(S)cc1Cl
- GI50 (786-0): 47.3 µM (inactive)
- GI50 (A498): 26.4 µM (inactive)
- GI50 (A549): 55.7 µM (inactive)
- GI50 (CCRF-CEM): > 100 µM (inactive)
- GI50 (DU-145): 54.3 µM (inactive)
- GI50 (HCT-116): 41.5 µM (inactive)
- GI50 (KM12): 25.4 µM (inactive)
- GI50 (MDA-N): 13.7 µM (inactive)
- GI50 (MOLT-4): > 100 µM (inactive)
- GI50 (NCI-H226): 34.1 µM (inactive)
- GI50 (OVCAR-3): 23.2 µM (inactive)
- GI50 (PC-3): 33.6 µM (inactive)
- GI50 (SF-295): 30.2 µM (inactive)
- GI50 (SF-539): 14 µM (inactive)
- GI50 (SK-OV-3): 46.2 µM (inactive)
- GI50 (SNB-19): 49.3 µM (inactive)
- GI50 (SNB-75): 43.3 µM (inactive)
- GI50 (SW-620): 44.7 µM (inactive)
- GI50 (TK-10): > 100 µM (inactive)
- GI50 (UACC-62): 66.4 µM (inactive)

SMILES: CCN(CC)CCSc1c2cc(OC)ccc2nc2ccc(OC)cc12
- GI50 (786-0): 1.85 µM (inactive)
- GI50 (A498): 23 µM (inactive)
- GI50 (A549): 16.1 µM (inactive)
- GI50 (CCRF-CEM): 2.86 µM (inactive)
- GI50 (DU-145): 2.05 µM (inactive)
- GI50 (HCT-116): 2.26 µM (inactive)
- GI50 (KM12): 5.09 µM (inactive)
- GI50 (MDA-N): 4.39 µM (inactive)
- GI50 (MOLT-4): 2.29 µM (inactive)
- GI50 (NCI-H226): 16.2 µM (inactive)
- GI50 (OVCAR-3): 2.59 µM (inactive)
- GI50 (PC-3): 3.56 µM (inactive)
- GI50 (SF-295): 19.4 µM (inactive)
- GI50 (SF-539): 2.45 µM (inactive)
- GI50 (SK-OV-3): 25.1 µM (inactive)
- GI50 (SNB-19): 12.1 µM (inactive)
- GI50 (SNB-75): 14.4 µM (inactive)
- GI50 (SW-620): 2.56 µM (inactive)
- GI50 (TK-10): 4.65 µM (inactive)
- GI50 (UACC-62): 14.3 µM (inactive)

SMILES: CC(NC(=O)c1ccc(NP(=O)(OCc2ccc([N+](=O)[O-])o2)N(C)CCCCCl)cc1)c1ccc(OCC2CCCCC2)c(C(N)=O)c1 (stereo not given)
- GI50 (786-0): 17.5 µM (inactive)
- GI50 (A498): 16.7 µM (inactive)
- GI50 (A549): 10.6 µM (inactive)
- GI50 (CCRF-CEM): 0.904 µM (active)
- GI50 (DU-145): 29.3 µM (inactive)
- GI50 (HCT-116): 16.2 µM (inactive)
- GI50 (KM12): 13.8 µM (inactive)
- GI50 (MDA-N): 17.7 µM (inactive)
- GI50 (MOLT-4): 9.71 µM (inactive)
- GI50 (NCI-H226): 16.4 µM (inactive)
- GI50 (OVCAR-3): 11.6 µM (inactive)
- GI50 (PC-3): 19.5 µM (inactive)
- GI50 (SF-295): 15.5 µM (inactive)
- GI50 (SF-539): 16.5 µM (inactive)
- GI50 (SK-OV-3): 21.6 µM (inactive)
- GI50 (SNB-19): 28.2 µM (inactive)
- GI50 (SNB-75): 11 µM (inactive)
- GI50 (SW-620): 28.4 µM (inactive)
- GI50 (TK-10): 23.4 µM (inactive)
- GI50 (UACC-62): 12.6 µM (inactive)

SMILES: CCC(C)C(NC(=O)CNC(=O)C(Cc1ccccc1)NC(=O)C1CCCN1C(=O)c1ccc(-c2ccc(Cl)cc2Cl)o1)C(=O)OC (stereo not given) (X33-PFGI-OMe; configuration not given here)
- GI50 (786-0): 27.1 µM (inactive)
- GI50 (A498): 7.4 µM (inactive)
- GI50 (A549): 23.9 µM (inactive)
- GI50 (CCRF-CEM): 8.09 µM (inactive)
- GI50 (DU-145): 39.5 µM (inactive)
- GI50 (HCT-116): 13.6 µM (inactive)
- GI50 (KM12): 37.5 µM (inactive)
- GI50 (MDA-N): 23.4 µM (inactive)
- GI50 (MOLT-4): 10.6 µM (inactive)
- GI50 (NCI-H226): > 100 µM (inactive)
- GI50 (OVCAR-3): 23.5 µM (inactive)
- GI50 (PC-3): 8 µM (inactive)
- GI50 (SF-295): 22 µM (inactive)
- GI50 (SF-539): 27.2 µM (inactive)
- GI50 (SK-OV-3): 89.5 µM (inactive)
- GI50 (SNB-19): 48.1 µM (inactive)
- GI50 (SNB-75): 23.6 µM (inactive)
- GI50 (SW-620): 23 µM (inactive)
- GI50 (TK-10): 51.9 µM (inactive)
- GI50 (UACC-62): 25.2 µM (inactive)
